In patent US8039456B2, “Method of stimulating the motility of the gastrointestinal system using ipamorelin” (Helsinn Therapeutics (U.S.), Inc., priority 2004, dated 2011):
Where two headings read alike, the source gives them in different places. Square brackets hold non-standard residues; d marks the D form. Ends that are not written are not given here. Peptide text beside a SMILES is read from it. d2Nal = N[C@H](Cc1ccc2ccccc2c1)C(=O)O; Aib = CC(C)(N)C(=O)O

Assays:
[1] = tested on: morphine-induced gastric ileus in rats; test: Morphine-induced gastric ileus in rats, phenol red gastric emptying (Example 4); format: in vivo, rat
Experimental: Treatment groups were set up as follows.
The dose volume was 0.1 mL/kg for Groups 2 and 3 and 0.4 mL/kg for Groups 4 and 5. The actual dose administered was based on the most recent practical body weight of each animal.
Approximately 30 minutes following administration of control or test article, the rats were euthanized. The stomach was then exposed by laparotomy, quickly ligated at the pylorus and the cardia and removed. The stomach was cut open and its contents extracted with 100 mL of 0.1N NaOH. The phenol red content of this extract was assayed […] at 558 nm in a spectrophotometer. Following collection, samples were stored on wet ice pending transfer for analysis.

[2] = tested on: gastrointestinal motility in rats; test: Gastrointestinal motility in rats by charcoal transit, 0.25 mg/kg i.v. (Example 8); format: in vivo, rat; details: for reduction of the amount of charcoal remaining in the stomach relative to the control group: 0.25 mg/kg i.v.
Experimental: The objective of this study was to evaluate the pharmacological effects of a series of ghrelin mimetics on gastrointestinal motility in rats, as measured by charcoal transit, relative to a commonly used prokinetic agent, metoclopramide, and control, following a single intravenous infusion of the experimental agent. Each dosing formulation was prepared on the day of dosing. […] The reference article formulations were also prepared on the day of dosing by mixing the appropriate amount of reference article with the appropriate volume of vehicle to achieve the desired final concentration. The saline and metoclopramide (1 mg/mL) were used as supplied. Dosing was performed on consecutive days with approximately equal numbers of animals being dosed on each day. The animals were deprived of food overnight prior to treatment. Each formulation was administered by intravenous injection into the tail vein using a syringe and appropriate gauge needle. The dose volume was 5 mL/kg or 10 mL/kg (in the case of metoclopramide only). […] Following the observation period the rats were euthanized, the abdominal cavity opened, and the stomach and intestines removed. The presence or absence of charcoal was documented. The stomachs were weighed (with or without contents) to give an indication of gastric emptying. The intestines were opened and extended to their full length. The charcoal was located and the distances from the pyloric sphincter to the most proximal and distal traces of charcoal were measured as was the total distance from the pyloric sphincter to the cecum. Also, the distance traveled by the charcoal as a percentage of the total length of the small intestine was measured.

[3] = tested on: gastrointestinal motility in rats; test: Gastrointestinal motility in rats by charcoal transit, equimolar i.v. dose (Example 9); format: in vivo, rat; details: single intravenous dose of 75 μmoles/kg
From the text: The objective of this study was to evaluate the pharmacological effects of a series of ghrelin mimetics on gastrointestinal motility in rats, as measured by charcoal transit, relative to control, following a single intravenous infusion of the experimental agent.
Dosing commenced on consecutive days with approximately equal numbers of animals from each group being dosed on each day. The animals were food deprived overnight prior to treatment. Prior to dosing, the animals were water deprived. The test/reference/positive control articles were administered by intravenous injection into the tail vein using a syringe and appropriate gauge needle. […]
At the end of the observation period, the rats were euthanized and the abdominal cavity was opened and the stomach and intestines were removed. […] The stomachs were weighed (with and without contents) and this was recorded to give an indication of gastric emptying. […] The charcoal was located and the distances from the pyloric sphincter to the most proximal and distal traces of charcoal were measured and recorded, as well as the total distance from the pyloric sphincter to the cecum (all distances were measured in mm). In addition to the stomachs weights (with and without contents) the distance traveled by the charcoal as a percentage of the total length of the small intestine was recorded to give an indication of the gastric emptying. […]

[4] = cited from earlier work
[5] = cited from earlier work; remark: listed apart in the source
Half-life in humans = format: in vivo
[6] = tested on: rat model of post-operative ileus; test: Gastric emptying (phenol red) after i.v. injection, ipamorelin compared to RC-1139, rat model of post-operative ileus (Example 5); format: in vivo; details: 10 mg/kg i.v.; for lethality: n = 2
Experimental: Ipamorelin was evaluated in a rat model of post-operative ileus in comparison to RC-1139, a ghrelin mimetic with known gastrokinetic efficacy. Treatment groups were as follows.
All animals were examined twice daily for mortality and signs of ill health or reaction to treatment (except on the day of arrival and necropsy when the animals were examined once). Individual body weights were measured at randomization and on the day prior to dosing (for dose calculation purposes only).
All treatment procedures were replicated over two consecutive days with approximately equal numbers of animals from each group treated on each day. Food was withdrawn from animals overnight prior to surgery. On the day of surgery animals were anesthetized with isoflurane gas and a bland ophthalmic lubricant was applied to each eye. The animals were prepared for surgery by shaving of the entire abdominal region. The shaved area was cleaned and disinfected appropriately prior to incision. Using a scalpel blade, the abdomen was opened and the cecum localized. The cecum was exteriorized and manipulated for approximately one minute (i.e. gently patted between hands in saline-soaked gauze). Thereafter, the cecum was repositioned and the surgical site closed using absorbable suture material (interrupted sutures) and staples. Animals were then returned to their home cage to permit recovery from the anesthesia.
Animals were dosed immediately following the oral gavage dose of phenol red. The test/control articles and reference article were administered by intravenous injection (given as a slow bolus injection over a period of ca. 100 seconds) into the tail vein using a syringe and appropriate gauge needle. The dose volume was 5 mL/kg and the actual dose administered was based on the most recent body weight of each animal.
Prior to dosing of the phenol red, the animals were water deprived. At approximately 30 minutes post-surgery, animals received 0.4 mL of phenol red by oral gavage, then dosed with the test article, and then, approximately 30 minutes later, were euthanized. […]

[7] = Prior Phase 1 studies, safety and tolerability; format: in vivo, humans; details: 0.06 mg/kg IV infused over 15 minutes
Experimental: Ipamorelin was formulated as a 0.5 mg/mL sterile solution with 2 equivalents of acetic acid in normal saline. The sterile solution was further diluted with normal saline to an appropriate volume for administration prior to use.

[8] = Johansen et al. 1998; cited from earlier work
rat model of POI = test: Rat model of POI (running of the bowel), single dose (Example 10, series 1); format: in vivo
From the text: Animals: Adult male Sprague-Dawley rats with indwelling catheters implanted in the right jugular vein were obtained from Charles River (Wilmington, Mass.). The initial body weight of the animals was 250-270 g. The catheters were maintained patent during the acclimation and were used for the dosing of ipamorelin or vehicle. An additional group of control rats, not subjected to surgery and drug or vehicle treatment, were purchased with an indwelling catheter implanted into the proximal colon (1-2 cm from the cecum) used for infusion of a dye marker measuring colonic transit. All rats were single-housed under controlled conditions (25° C., 12 h light/dark cycle) with free access to food and water. An acclimation period of at least one week was allowed prior to the experiments. • Induction of post-operative ileus (POI): POI was induced by a surgical procedure described as “running of the bowel” (Kalff et al., 1998). Specifically, rats were anesthetized with isoflurane (2-3%) inhalation, the abdomen was shaved, disinfected and a midline incision was made to expose the viscera. The small intestine and the cecum were exteriorized and inspected for 5 min using cotton applicators soaked in sterile saline. After completing the inspection, the intestine was covered with gauze soaked in saline and the abdomen remained open for additional 10 min. To study colonic transit, 200 μl of a non-absorbable dye marker (trypan blue in saline) was injected into the proximal colon (1 cm distal to the cecum). The incision was then closed with silk sutures. The whole procedure lasted 25-30 min. Surgeries were always performed at 6:00-8:00 AM and the animals received ipamorelin or vehicle treatment during the light phase of the light/dark cycle. • Measurement of colonic transit time: Prior to the experiments, the rats were fasted for 20-22 h with free access to water. […] Colonic transit time was evaluated as the period between the end of surgery and the appearance of dye in the fecal pellet. […] The cumulative fecal output was evaluated by adding the number of pellets throughout a 48-h post-surgical period. Food intake was recorded at 3-h interval or 12-h intervals according to the experimental design and was normalized as g/100 g body weight. The cumulative food intake was calculated for 48 h post-surgery in both series of experiments. Body weight was measured daily at 8:00-9:00 AM before fasting the animals, on the day of experiment before the surgery and at 24 h and 48 h post-surgery. Changes in body weight are expressed as body weight gain compared to the weight of the fasted animal taken before the surgery. • Test and control articles: The test compound ipamorelin (free base) was converted to the diacetate salt by mixing with 2 molar equivalents of glacial acetic acid. […]

[9] = 50 μg/kg i.v. after 1 mg/kg morphine
[10] = single dose i.v., first 48 h post-surgery

Q: With `CN1CC[C@]23c4c5ccc(O)c4O[C@H]2[C@@H](O)C=C[C@H]3[C@H]1C5` [morphine] as the compound, how does the “reduction of stomach emptying compared to the control animals” value ([1]; 1 or 4 mg/kg subcutaneous) read?
A: The value was “approximately 42%”.

Q: Which “acceleration of stomach emptying compared to animals treated with 1 mg/kg morphine and saline” value [1, 9] does the source give for “ghrelin: 28-amino acid peptide that is produced in the stomach; potent prokinetic peptide known to reverse gastric ileus (GSSFLSPEHQRVQQRKESKKPPAKLQPR; ends and bridges not checked; UniProt Q9UBU3 24-51, looked up)” here?
A: Its value is “approximately 37%”.

Q: What about the “reversal of the ileus induced” value [1, 9] of the same compound?
A: The value was “approximately 11%”.

Q: What about the “gastric emptying in rats administered 4 mg/kg of morphine” value ([1]; 50 μg/kg i.v. after 4 mg/kg morphine) of the same compound?
A: The value was “did not accelerate gastric emptying”.

Q: What about the “group mean absorbance of phenol red” value ([1]; 50 μg/kg i.v. after 4 mg/kg morphine, saline group 2.99) of the same compound?
A: The value was 3.01.

Q: What about the “reduction of the amount of charcoal remaining in the stomach relative to the control group” value [2] of the same compound?
A: The value was 57%.

Q: What about the “intestinal transit, proximal distance traveled by the charcoal from the pyloric sphincter” value [3] of the same compound?
A: The value was “resulted in gastric emptying by one of the two measures”.

Q: What about the half-life in humans [4] of the same compound?
A: Its half-life in humans is “approximately 10 minutes”.

Q: What about the serum half-life ([5]; biologically active (acylated) form, Akamizu et al. 2004) of the same compound?
A: Its serum half-life is 9 to 13 min.

Q: What does the source list for `CC(C)(N)C(=O)N[C@@H](Cc1c[nH]cn1)C(=O)N[C@H](Cc1ccc2ccccc2c1)C(=O)N[C@H](Cc1ccccc1)C(=O)N[C@@H](CCCCN)C(N)=O` [ipamorelin, α-Methylalanine-L-histidine-D-β-(2-naphthyl)-alanine-D-phenylalanine-L-lysinamide] (H-[Aib]H[d2Nal][dF]K-NH2)?
A: half-life in humans (Half-life in humans): approximately six; half-life (Half-life in humans; human, serum): 180 to 390 min; lethality [6]: Two animals died immediately; lethality ([6]; listed as Ipamorelin): *Lethality was observed immediately following administration of a 10 mg/kg dose (n = 2) and consequently the dose level was reduced to 0.25 mg/kg for all remaining animals in Group 4; safety and tolerability in prior Phase 1 studies [7]: safe and well-tolerated; half-life in the rat [8]: 30 to 60 min

Q: Which “stomach content of the phenol red marker lower than that of the control group” value [6] does the source give for `CN(C(=O)/C=C/CC(C)(C)N)[C@H](Cc1ccc(-c2ccccc2)cc1)C(=O)N(C)[C@H](Cc1ccccc1)C(=O)N1CCC(O)CC1` [RC-1139] here?
A: The value was “approximately 16%”.

Q: Which “reduction of the amount of charcoal remaining in the stomach relative to the control group” value [2] does the source give for GHRP-6 here?
A: Its value is 64%.

Q: And the “intestinal transit, proximal distance traveled by the charcoal from the pyloric sphincter” value [3]?
A: Its value is “resulted in gastric emptying by one of the two measures”.

Q: What about the body weight gain (rat model of POI; [10]) of the same compound?
A: The body weight gain was “neither ipamorelin nor GHRP-6 had a significant effect”.

Q: What about the fecal pellet output (rat model of POI; [10]) of the same compound?
A: The fecal pellet output was “neither ipamorelin nor GHRP-6 had a significant effect”.

Q: And the food intake (rat model of POI; [10])?
A: Its food intake is “neither ipamorelin nor GHRP-6 had a significant effect”.

Q: And the colonic transit time (rat model of POI; single post-surgical dose of 20 μg i.v.)?
A: The colonic transit time was “significantly decreased”.

Q: What about the serum half life ([5]; Bowers et al. 1992) of the same compound?
A: Its serum half life is 20 min.

Q: Which “increase of distal distance traveled by the charcoal meal versus control” value ([2]; 10 mg/kg i.v.) does the source give for `CCN(CC)CCNC(=O)c1cc(Cl)c(N)cc1OC` [metoclopramide] here?
A: The value was 29%.

Q: What about the “stomach charcoal content versus control group” value ([2]; 10 mg/kg i.v.) of the same compound?
A: Its value is “not significantly different”.

Q: And the “distal distance traveled by the charcoal meal” value ([2]; 10 mg/kg i.v., control group 67.3%)?
A: The value was 86.9%.
